Results taken from PubChem BioAssay (NCI).
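Dose response: 5 concentrations. Exposure: 48 h. Format: 96-well plates. Endpoint: linear interpolation; highest concentration if not reached. GI50 marks 50% less growth. TGI is the concentration that stops growth completely.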

How the values were obtained:
Assay in all cases: growth of human tumour cells (NCI), 48 h
KM12 colon = test system: KM12 colon
HT29 colon = test system: HT29 colon
SNB-19 CNS = test system: SNB-19 CNS
HCT-15 colon = test system: HCT-15 colon
K-562 leukemia = test system: K-562 leukemia
HCC-2998 colon = test system: HCC-2998 colon
RPMI-8226 leukemia = test system: RPMI-8226 leukemia
786-0 renal = test system: 786-0 renal
IGROV1 ovarian = test system: IGROV1 ovarian
A549 NSCLC = test system: A549 NSCLC
EKVX NSCLC = test system: EKVX NSCLC
MDA-MB-231 breast = test system: MDA-MB-231 breast
SK-OV-3 ovarian = test system: SK-OV-3 ovarian
MOLT-4 leukemia = test system: MOLT-4 leukemia
SK-MEL-5 melanoma = test system: SK-MEL-5 melanoma
DU-145 prostate = test system: DU-145 prostate
U251 CNS = test system: U251 CNS
MALME-3M melanoma = test system: MALME-3M melanoma
NCI-H522 lung = test system: NCI-H522 lung
HOP-92 NSCLC = test system: HOP-92 NSCLC
OVCAR-4 ovarian = test system: OVCAR-4 ovarian
SK-MEL-2 melanoma = test system: SK-MEL-2 melanoma
TK-10 renal = test system: TK-10 renal
MDA-MB-435 = test system: MDA-MB-435
OVCAR-5 ovarian = test system: OVCAR-5 ovarian
NCI-H23 lung = test system: NCI-H23 lung
MCF7 breast = test system: MCF7 breast
NCI-H460 lung = test system: NCI-H460 lung
ACHN renal = test system: ACHN renal

COc1ccccc1/C=C/C=N/NC1=NC2C(S1)N(C)C(=O)N2c1ccccc1 (configuration not stated)
TGI (KM12 colon): > 37100 nM | GI50 (HT29 colon): 332 nM | TGI (HT29 colon): 1490 nM | GI50 (SNB-19 CNS): 455 nM | TGI (SNB-19 CNS): > 93400 nM | GI50 (HCT-15 colon): 371 nM | TGI (HCT-15 colon): 23100 nM | GI50 (K-562 leukemia): 383 nM | TGI (K-562 leukemia): > 100000 nM | GI50 (HCC-2998 colon): 377 nM | TGI (HCC-2998 colon): 11600 nM | GI50 (RPMI-8226 leukemia): 396 nM | TGI (RPMI-8226 leukemia): 11200 nM | GI50 (786-0 renal): 642 nM | TGI (786-0 renal): 13800 nM | GI50 (IGROV1 ovarian): 601 nM | TGI (IGROV1 ovarian): 26300 nM | GI50 (A549 NSCLC): 485 nM | TGI (A549 NSCLC): > 100000 nM | GI50 (EKVX NSCLC): 729 nM | TGI (EKVX NSCLC): > 100000 nM | GI50 (MDA-MB-231 breast): 588 nM | TGI (MDA-MB-231 breast): 20900 nM | GI50 (SK-OV-3 ovarian): 510 nM | TGI (SK-OV-3 ovarian): > 44800 nM | GI50 (MOLT-4 leukemia): 404 nM | TGI (MOLT-4 leukemia): > 100000 nM | GI50 (SK-MEL-5 melanoma): 545 nM | TGI (SK-MEL-5 melanoma): 5270 nM | GI50 (DU-145 prostate): 471 nM | TGI (DU-145 prostate): > 100000 nM | GI50 (U251 CNS): 387 nM | TGI (U251 CNS): 6280 nM | GI50 (MALME-3M melanoma): 2680 nM | TGI (MALME-3M melanoma): 29000 nM | GI50 (NCI-H522 lung): 210 nM | TGI (NCI-H522 lung): 575 nM | GI50 (HOP-92 NSCLC): 202 nM | TGI (HOP-92 NSCLC): 1280 nM | GI50 (OVCAR-4 ovarian): 5230 nM | TGI (OVCAR-4 ovarian): > 100000 nM | GI50 (SK-MEL-2 melanoma): 449 nM | TGI (SK-MEL-2 melanoma): 15300 nM | GI50 (TK-10 renal): 11400 nM | TGI (TK-10 renal): > 70900 nM | GI50 (MDA-MB-435): 250 nM | TGI (MDA-MB-435): 636 nM | GI50 (OVCAR-5 ovarian): 690 nM | TGI (OVCAR-5 ovarian): > 100000 nM | GI50 (NCI-H23 lung): 474 nM | TGI (NCI-H23 lung): > 100000 nM | GI50 (MCF7 breast): 385 nM | TGI (MCF7 breast): > 100000 nM | GI50 (NCI-H460 lung): 349 nM | TGI (NCI-H460 lung): 11000 nM | GI50 (ACHN renal): 692 nM | TGI (ACHN renal): > 48400 nM
